Measurements reported in patent publication US8709764B2, “Enzymatic demethylation of flavonoids” (Universiteit Gent, priority 2005, dated 2014).

Experiments:
[1] = Incubation of IX and 8-PN with Eubacterium limosum for 13 days; assay type: in vitro ADME; settings: Eubacterium limosum, Eubacterium limosum ATCC 8486 culture; E. limosum, 25 mg/l substrate, 13 days anaerobic; average (stdev) molar percentage
Description: Eubacterium limosum ATCC 8486 and Peptostreptococcus productus ATCC 27340 were obtained from the German Collection of Microorganisms and Cell Cultures (DSMZ, Braunschweig, Germany). E. limosum was incubated for 13 days in Brain Heart Infusion broth (with 0.5 g/l cystein-HCl) with 25 mg/l of IX and 8-PN under anaerobic conditions (Table 2). This strain was able to convert IX into 8-PN. […] This feature is clearly different from the metabolic pathway as observed in liver microsomes wherein 8-PN is extensively further metabolised [Nikolic et al. (2005) J. of Mass Spectrom. 40, 289-299; Nikolic et al. (2004) Drug Metabolism and Disposition 32, 272-279].

[2] = test system: fecal culture B supplemented with E. limosum; test: Supplementation of selected E. limosum strain to non-converting fecal culture B incubated with IX; assay type: in vitro ADME, human
Description: The most efficient E. limosum strain, obtained from the selection experiment in example 2, was supplemented to the originally non-converting culture B of example 1, to examine the capacity of this strain to initiate the production of 8-PN in the complex environment of a fecal suspension. The strain was added to the culture in proportions ranging from 0% up to 100% (v/v). This mixture was incubated with 10% (v/v) of 25 mg/L IX for a period of seven days in Brain Heart Infusion broth (with 0.5 g/l cystein-HCl) under anaerobic conditions. The concentration of 8-PN was monitored every two days (FIG. 7).

[3] = test system: selected strain Eubacterium limosum; test: Fed batch fermentation of IX with selected Eubacterium limosum strain; assay type: in vitro ADME; settings: fermentor effluent
Description: A fed batch fermentation experiment was designed to use a selected strain Eubacterium limosum as obtained above, to convert methylated prenylflavonoids in a fermentation setting. Fermentation was performed in a Braun Biostat® M fermentor (2 l vessel), filled with 1.5 L Brain Heart Infusion broth (with 0.5 g/l cystein-HCl). Subsequently, the fermentor was sterilized by autoclaving it for 30 min at 121° C. Before inoculation, the fermentor was made anaerobic by flushing the system for 1 h with nitrogen gas. After this, the fermentor was inoculated with a 2-days old E. limosum culture and 25 mg/L IX was added to the fermentation liquid. The fermentation was performed at 37° C. for 2 weeks, without pH control. From day 1 on, three times/day 200 ml anaerobic Brain Heart Infusion broth (with 0.5 g/l cystein-HCl), containing 25 mg/L IX was dosed to the reactor at 10 ml/min and simultaneously […] fermentor content was removed from the system. A 10 ml sample was taken from the effluent, for chemical analysis. This was done at day 0, 1, 2 and afterwards every 2 days. Data were as % conversion (8-PN/(IX+8-PN)). A conversion of 0% (day 0), 43% (day 1) and 100% (day 2 and following days), of IX into 8-PN was obtained.

Structure (SMILES): COc1cc(O)c(CC=C(C)C)c2c1C(=O)C[C@@H](c1ccc(O)cc1)O2 [IX, 5-O-methyl-8-prenylnaringenin]
- recovery at 13 days, 25 mg/l [1]: 51.4%
- Conversion of IX into 8-PN ([2]; 1% supplementation of E. limosum, after one day): half of the dosed IX was already transformed into 8-PN
- Conversion of IX into 8-PN ([2]; equal amount of E. limosum culture and fecal sample (100% in FIG. 7)): complete conversion of IX into 8-PN
- % conversion (8-PN/(IX+8-PN)) ([3]; day 0): 0%
- % conversion (8-PN/(IX+8-PN)) ([3]; day 1): 43%
- % conversion (8-PN/(IX+8-PN)) ([3]; day 2 and following days): 100%
